Test results taken from PubChem BioAssay AID2060906 (Molecular Pharmacology Branch, DTP, NCI, 2025).

Tested on: 485176-168-R4-J1-PDC complex spheroid growth
Assay: Anticancer human tumor 485176-168-R4-J1-PDC patient-derived pancreatic adenocarcinoma cell line growth inhibition [RAS]
Conditions: for IC50: curve of first compound; for viability, T/C: stronger effect = lower value; active = viability on the fitted dose curve at most 10% of control; inactive = the rest
Method in brief: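 Agents were tested in combination matrices in half-log decrements from a top concentration at or near clinical Cmax (10 microM if undetermined). Targets were multi-cell spheroids of tumour lines plus HUVEC and MSC stromal cells.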

[1] = second compound 0.000949 µM, first compound 0.0316 µM
[2] = second compound 0.000949 µM, first compound 0.1 µM
[3] = second compound 0.000949 µM, first compound 0.316 µM
[4] = second compound 0.000949 µM, first compound 1 µM
[5] = second compound 0.000949 µM, first compound 3.16 µM
[6] = second compound 0.000949 µM, first compound 10 µM
[7] = second compound 0.003 µM, first compound 0.0316 µM
[8] = second compound 0.003 µM, first compound 0.1 µM
[9] = second compound 0.003 µM, first compound 0.316 µM
[10] = second compound 0.003 µM, first compound 1 µM
[11] = second compound 0.003 µM, first compound 3.16 µM
[12] = second compound 0.003 µM, first compound 10 µM
[13] = second compound 0.00949 µM, first compound 0.0316 µM
[14] = second compound 0.00949 µM, first compound 0.1 µM
[15] = second compound 0.00949 µM, first compound 0.316 µM
[16] = second compound 0.00949 µM, first compound 1 µM
[17] = second compound 0.00949 µM, first compound 3.16 µM
[18] = second compound 0.00949 µM, first compound 10 µM
[19] = second compound 0.03 µM, first compound 0.0316 µM
[20] = second compound 0.03 µM, first compound 0.1 µM
[21] = second compound 0.03 µM, first compound 0.316 µM
[22] = second compound 0.03 µM, first compound 1 µM
[23] = second compound 0.03 µM, first compound 3.16 µM
[24] = second compound 0.03 µM, first compound 10 µM
[25] = second compound 0.0949 µM, first compound 0.0316 µM
[26] = second compound 0.0949 µM, first compound 0.1 µM
[27] = second compound 0.0949 µM, first compound 0.316 µM
[28] = second compound 0.0949 µM, first compound 1 µM
[29] = second compound 0.0949 µM, first compound 3.16 µM
[30] = second compound 0.0949 µM, first compound 10 µM
[31] = second compound 0.3 µM, first compound 0.0316 µM
[32] = second compound 0.3 µM, first compound 0.1 µM
[33] = second compound 0.3 µM, first compound 0.316 µM
[34] = second compound 0.3 µM, first compound 1 µM
[35] = second compound 0.3 µM, first compound 3.16 µM
[36] = second compound 0.3 µM, first compound 10 µM
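Note: spheroids exposed to compounds for seven days before readout.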
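Throughout, for viability, T/C: luminescence viability expressed relative to DMSO vehicle wells set as 100%.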

CC1(O)CCCC1n1c(=O)c(C(F)F)cc2cnc(NC3CCN(S(C)(=O)=O)CC3)nc21 (stereo not given) + CCn1c(-c2cc(N3CCN(C)CC3)cnc2C(C)OC)c2c3cc(ccc31)-c1csc(n1)CC(NC(=O)C1CC1C)C(=O)N1CCCC(N1)C(=O)OCC(C)(C)C2
1510 nM: IC50 (second compound 0.3 µM)
1720 nM: IC50 (second compound 0.00949 µM)
3440 nM: IC50 (second compound 0.003 µM)
1460 nM: IC50 (second compound 0.000949 µM)
1660 nM: IC50 (second compound 0.03 µM)
1390 nM: IC50 (second compound 0.0949 µM)
active: viability, T/C [6] 2.12% | viability, T/C [12] 1.93% | viability, T/C [18] 1.63% | viability, T/C [24] 1.78% | viability, T/C [30] 2.07% | viability, T/C [36] 1.81%
inactive: viability, T/C [1] 81.1% | viability, T/C [2] 67.5% | viability, T/C [3] 63% | viability, T/C [4] 48.1% | viability, T/C [5] 48.4% | viability, T/C [7] 73.9% | viability, T/C [8] 56% | viability, T/C [9] 71.5% | viability, T/C [10] 59.7% | viability, T/C [11] 54.9% | viability, T/C [13] 78.6% | viability, T/C [14] 68.6% | viability, T/C [15] 60.8% | viability, T/C [16] 61.5% | viability, T/C [17] 41.5% | viability, T/C [19] 63.7% | viability, T/C [20] 50.4% | viability, T/C [21] 56.6% | viability, T/C [22] 56% | viability, T/C [23] 43.1% | viability, T/C [25] 59.4% | viability, T/C [26] 60.9% | viability, T/C [27] 51.3% | viability, T/C [28] 49.4% | viability, T/C [29] 44.7% | viability, T/C [31] 75.7% | viability, T/C [32] 48.5% | viability, T/C [33] 44% | viability, T/C [34] 58.9% | viability, T/C [35] 43%

CCC(CC)c1cc(NC2CCC(N)C2)n2nccc2n1 (stereo not given) + CCn1c(-c2cc(N3CCN(C)CC3)cnc2C(C)OC)c2c3cc(ccc31)-c1csc(n1)CC(NC(=O)C1CC1C)C(=O)N1CCCC(N1)C(=O)OCC(C)(C)C2
925 nM: IC50 (second compound 0.03 µM)
1260 nM: IC50 (second compound 0.003 µM)
1070 nM: IC50 (second compound 0.00949 µM)
1130 nM: IC50 (second compound 0.000949 µM)
1000 nM: IC50 (second compound 0.3 µM)
active: viability, T/C [5] 1.96% | viability, T/C [6] 0.46% | viability, T/C [11] 1.91% | viability, T/C [12] 0.43% | viability, T/C [17] 1.09% | viability, T/C [18] 0.36% | viability, T/C [23] 1.14% | viability, T/C [24] 0.38% | viability, T/C [29] 0.88% | viability, T/C [30] 0.45% | viability, T/C [35] 0.86% | viability, T/C [36] 0.45%
1040 nM: IC50 (second compound 0.0949 µM)
inactive: viability, T/C [1] 92.1% | viability, T/C [2] 83.7% | viability, T/C [3] 84.7% | viability, T/C [4] 55.9% | viability, T/C [7] 94.5% | viability, T/C [8] 94.3% | viability, T/C [9] 100% | viability, T/C [10] 62.4% | viability, T/C [13] 106% | viability, T/C [14] 78.7% | viability, T/C [15] 89.1% | viability, T/C [16] 53.4% | viability, T/C [19] 83.6% | viability, T/C [20] 84.1% | viability, T/C [21] 82.8% | viability, T/C [22] 47.6% | viability, T/C [25] 77.5% | viability, T/C [26] 89% | viability, T/C [27] 68.5% | viability, T/C [28] 53% | viability, T/C [31] 81.4% | viability, T/C [32] 70% | viability, T/C [33] 71.7% | viability, T/C [34] 50.1%

CCN1CCN(Cc2ccc(Nc3ncc(F)c(-c4cc(F)c5nc(C)n(C(C)C)c5c4)n3)nc2)CC1 + CCn1c(-c2cc(N3CCN(C)CC3)cnc2C(C)OC)c2c3cc(ccc31)-c1csc(n1)CC(NC(=O)C1CC1C)C(=O)N1CCCC(N1)C(=O)OCC(C)(C)C2
938 nM: IC50 (second compound 0.03 µM)
> 1000 nM: IC50 (second compound 0.000949 µM) | IC50 (second compound 0.003 µM) | IC50 (second compound 0.3 µM)
756 nM: IC50 (second compound 0.00949 µM)
929 nM: IC50 (second compound 0.0949 µM)
inactive: viability, T/C (second compound 0.000949 µM, first compound 0.00316 µM) 78.7% | viability, T/C (second compound 0.000949 µM, first compound 0.01 µM) 80.9% | viability, T/C [1] 81% | viability, T/C [2] 67.4% | viability, T/C [3] 73% | viability, T/C [4] 54.8% | viability, T/C (second compound 0.003 µM, first compound 0.00316 µM) 84.9% | viability, T/C (second compound 0.003 µM, first compound 0.01 µM) 76.5% | viability, T/C [7] 85.2% | viability, T/C [8] 66.9% | viability, T/C [9] 62.7% | viability, T/C [10] 53.8% | viability, T/C (second compound 0.00949 µM, first compound 0.00316 µM) 75.3% | viability, T/C (second compound 0.00949 µM, first compound 0.01 µM) 85.8% | viability, T/C [13] 73.4% | viability, T/C [14] 70.2% | viability, T/C [15] 63% | viability, T/C [16] 45.9% | viability, T/C (second compound 0.03 µM, first compound 0.00316 µM) 77.5% | viability, T/C (second compound 0.03 µM, first compound 0.01 µM) 68.1% | viability, T/C [19] 75.3% | viability, T/C [20] 58.3% | viability, T/C [21] 63.8% | viability, T/C [22] 47.9% | viability, T/C (second compound 0.0949 µM, first compound 0.00316 µM) 64.7% | viability, T/C (second compound 0.0949 µM, first compound 0.01 µM) 74.7% | viability, T/C [25] 59.2% | viability, T/C [26] 55.1% | viability, T/C [27] 51.6% | viability, T/C [28] 52% | viability, T/C (second compound 0.3 µM, first compound 0.00316 µM) 54.9% | viability, T/C (second compound 0.3 µM, first compound 0.01 µM) 76.6% | viability, T/C [31] 70.9% | viability, T/C [32] 65.3% | viability, T/C [33] 53.5% | viability, T/C [34] 51%

Cc1nc(N2CCC3(CC2)COC(C)C3N)c(CO)nc1Sc1ccnc(N)c1Cl (stereo not given) + CCn1c(-c2cc(N3CCN(C)CC3)cnc2C(C)OC)c2c3cc(ccc31)-c1csc(n1)CC(NC(=O)C1CC1C)C(=O)N1CCCC(N1)C(=O)OCC(C)(C)C2
inactive: viability, T/C [1] 90.6% | viability, T/C [2] 83.5% | viability, T/C [3] 84.1% | viability, T/C [4] 72.8% | viability, T/C [5] 77.5% | viability, T/C [6] 75.7% | viability, T/C [7] 82.7% | viability, T/C [8] 68.7% | viability, T/C [9] 87.8% | viability, T/C [10] 83.6% | viability, T/C [11] 83.8% | viability, T/C [12] 82.8% | viability, T/C [13] 94.3% | viability, T/C [14] 80.1% | viability, T/C [15] 80.4% | viability, T/C [16] 78.5% | viability, T/C [17] 77.2% | viability, T/C [18] 68% | viability, T/C [19] 77.1% | viability, T/C [20] 74.6% | viability, T/C [21] 94.7% | viability, T/C [22] 82.5% | viability, T/C [23] 90% | viability, T/C [24] 63.4% | viability, T/C [25] 85.2% | viability, T/C [26] 93.2% | viability, T/C [27] 59.9% | viability, T/C [28] 75% | viability, T/C [29] 80.7% | viability, T/C [30] 70.4% | viability, T/C [31] 78.8% | viability, T/C [32] 72.9% | viability, T/C [33] 63.2% | viability, T/C [34] 56.9% | viability, T/C [35] 76.5% | viability, T/C [36] 65.3%
> 10000 nM: IC50 (second compound 0.000949 µM) | IC50 (second compound 0.003 µM) | IC50 (second compound 0.00949 µM) | IC50 (second compound 0.03 µM) | IC50 (second compound 0.0949 µM) | IC50 (second compound 0.3 µM)

NC1c2ccccc2OC12CCN(c1cnc3c(N4CCCc5ncccc54)n[nH]c3n1)CC2 (stereo not given) + CCn1c(-c2cc(N3CCN(C)CC3)cnc2C(C)OC)c2c3cc(ccc31)-c1csc(n1)CC(NC(=O)C1CC1C)C(=O)N1CCCC(N1)C(=O)OCC(C)(C)C2
> 10000 nM: IC50 (second compound 0.000949 µM) | IC50 (second compound 0.003 µM) | IC50 (second compound 0.00949 µM) | IC50 (second compound 0.03 µM) | IC50 (second compound 0.0949 µM) | IC50 (second compound 0.3 µM)
inactive: viability, T/C [1] 86.4% | viability, T/C [2] 88.8% | viability, T/C [3] 97.4% | viability, T/C [4] 85% | viability, T/C [5] 89.2% | viability, T/C [6] 79.1% | viability, T/C [7] 93.1% | viability, T/C [8] 80.9% | viability, T/C [9] 76.7% | viability, T/C [10] 97.9% | viability, T/C [11] 91.8% | viability, T/C [12] 81.4% | viability, T/C [13] 81.7% | viability, T/C [14] 93.2% | viability, T/C [15] 76.2% | viability, T/C [16] 81.1% | viability, T/C [17] 81.9% | viability, T/C [18] 67.2% | viability, T/C [19] 83% | viability, T/C [20] 98% | viability, T/C [21] 83.4% | viability, T/C [22] 104% | viability, T/C [23] 91% | viability, T/C [24] 79% | viability, T/C [25] 80.8% | viability, T/C [26] 82% | viability, T/C [27] 76.9% | viability, T/C [28] 85.2% | viability, T/C [29] 100% | viability, T/C [30] 76.9% | viability, T/C [31] 87.4% | viability, T/C [32] 86.1% | viability, T/C [33] 69% | viability, T/C [34] 80.1% | viability, T/C [35] 83.1% | viability, T/C [36] 75.1%
